# Legend:
# [1] = tested on: Caco-2 cells; assay: Caco-2 bidirectional permeability; format: in vitro ADME; conditions: for Caco-2 A2B (10^−6 cm/s): A to B; for Caco-2 A2B (10^−6 cm/s) / Caco-2 B2A (10^−6 cm/s): HBSS pH 7.4, 2 hours; for Caco-2 B2A (10^−6 cm/s): B to A; for Caco-2 ER: Efflux Ratio=Papp (BA)/Papp (AB)
# Procedure: The compounds disclosed herein were tested in vitro on CaCo2 cell penetration according to the following procedures.
# Test compounds were prepared in dimethyl sulfoxide (DMSO).
# Caco-2 cells purchased from ATCC were seeded onto […] (PET) in 96-well Corning Insert plates at 1×10^5 cells/cm^2. The media were refreshed every 4 to 5 days until the 21st to 28th day for confluent cell monolayer formation.
# Experiments were run in duplicate using a HBSS transport buffer containing 10 mM HEPES at pH 7.4. The test article TEST COMPOUND was tested bi-directionally at […] concentrations, the control compound digoxin was tested bi-directionally at 10 μM, and nadolol and metoprolol were tested at 2.0 μM in the A to B direction. Final DMSO concentrations were adjusted to less than 1%. The plates were incubated for 2 hours in a CO2 incubator at 37±1° C. with 5% CO2 at saturated humidity without shaking. Following incubation, samples were mixed with acetonitrile containing internal standard and centrifuged at 3200×g for 10 minutes. Then 200 μL of supernatant was taken from all samples. For TEST COMPOUND and digoxin, the supernatant was diluted with 200 μL of ultra-pure water and for nadolol and metoprolol, the supernatant was diluted with 600 μL of ultra-pure water. All samples were analyzed by LC-MS/MS. Concentrations of TEST COMPOUND and control compounds were determined in starting solutions, donor well solutions, and receiver well solutions using peak area ratios (PAR) of analyte to internal standard. After the transport assay, a lucifer yellow rejection assay was run to determine the Caco-2 cell monolayer integrity.
# The apparent permeability (Papp), the % recovery and the efflux ratio were calculated as follows: • 1. Papp=(dCr/dt)×Vr/(A×C0) • 2. % Recovery=100×[(Vr×Cr)+(Vd×Cd)]/(Vd×C0) • 3. Efflux Ratio=Papp (BA)/Papp (AB) • Where: • dCr/dt is the slope of the cumulative concentration in the receiver compartment versus time (mM/s). • Vr and Vd is the volume in the receiver and donor compartments (0.075 mL on the apical side, 0.25 mL on the basolateral side), respectively. • A is the surface area of the cell monolayer (0.0804 cm^2). • C0 is the measured donor concentrations (μM) at the beginning of the experiment. • Cd and Cr are the final measured concentrations in the donor and receiver compartments, respectively.
# The cell monolayer tight junction integrity assay was conducted after completion of the transport assay by adding Lucifer Yellow (LY) to the apical wells at 100 μM and incubating the cells for 30 minutes. Following incubation, tight junction integrity was assessed from LY concentrations in the basolateral compartment (receiver well) and the apical compartment (donor well) using fluorescence detection as follows: […]
# [2] = target: T1, wt human LRRK2, catalytic site (Homo sapiens, UniProt Q5S007); assay: TR-FRET LanthaScreen Tb Kinase Activity Assay, LRRK2 kinase inhibition; format: biochemical; conditions: 2 nM wt human LRRK2, 400 nM peptide, 38 μM ATP
# T1 construct: wt human LRRK2, catalytic site, catalytic site (ThermoFisher/USA); purchased ThermoFisher
# T1 sequence (Q5S007 1879-2138 limits assumed): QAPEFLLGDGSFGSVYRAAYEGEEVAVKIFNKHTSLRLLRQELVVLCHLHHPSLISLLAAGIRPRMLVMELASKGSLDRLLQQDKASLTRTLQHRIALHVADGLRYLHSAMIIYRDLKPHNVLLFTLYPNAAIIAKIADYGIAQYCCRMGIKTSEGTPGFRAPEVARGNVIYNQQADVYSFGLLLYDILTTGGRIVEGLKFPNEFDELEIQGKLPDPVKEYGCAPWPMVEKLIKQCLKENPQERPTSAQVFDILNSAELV
# Procedure: The compounds disclosed herein were tested for their inhibitory effect on LRRK2 kinase according to the following procedures.
# The protocol for basic TR-FRET LanthaScreen Tb Kinase Activity Assay inhibitor studies is as follows. LanthaScreen Kinase Activity Assays (ThermoFisher/USA) to evaluate inhibitors were performed by addition of 100 nL of test compound in the corresponding DMSO dilutions/5 L of kinase/fluorescein-ERM(LRRKtide) peptide mixture, Compound & kinase were pre-incubated for 15 minutes, then 5 μl of ATP into 384 well small volume plates. After incubation for 120 minutes at room temperature, the detection reagents containing Tb-anti-pLRRKtide antibody were added to monitor the phosphrylation level of peptide. Then, after 60 min minutes incubation at room temperature plates were read in Envision. Data analysis of emission ratios was according to the LanthaScreen Tb Kinase Activity Assay protocol.
# Kinase and assay components were adjusted to final concentrations according to the kit protocol. For LRRK2: 2 nM wt human LRRK2, catalytic site, catalytic site (ThermoFisher/USA), 400 nM peptide, 38 μM ATP in 1× Kinase Buffer A.
# Basic protocol for TR-FRET LanthaScreen Tb Kinase Activity Assay inhibitor studies involved two steps: Enzymatic step: Addition of 100 nl of test compound in corresponding DMSO dilutions, 5 μl of kinase/substrate mixture, 5 μl of ATP into 384 well small volume plates. Incubation for 120 minutes at room temperature.
# Detection step: Addition of 10 μl EDTA & antibody, read plate after 60 minutes. Data analysis of emission ratios according to KinEASE assay protocol.
# Kinase and assay components were adjusted to final concentrations according to the kit protocol.
# [3] = Human liver microsomal clearance (hLM Cl); format: in vitro ADME; conditions: cells marked *
# [4] = Human hepatocyte stability, in vitro h-Hept CLpredict; format: in vitro ADME; conditions: cryopreserved hepatocytes, predicted hepatic clearance, cells without asterisk, read-out: hHep Cl
# Procedure: The compounds disclosed herein were tested in vitro on human hepatocyte for in vitro h-Hept CLpredict according to the following procedures. • 1. Compound sock solutions were prepared by dissolving test compound and positive control in dimethyl sulfoxide (DMSO) at a concentration of 10 mM. Stock solutions were then diluted to 100 μM solutions by combining 198 μL of 50% acetonitrile/50% water with 2 μL of the 10 mM stock stock in separate conical tubes. • 2. Cryopreserved hepatocytes were prepared as follows: Incubation medium (William's E Medium supplemented with GlutaMAX) and hepatocyte thawing medium were placed in a 37° C. water bath and allowed to warm for at least 15 minutes prior to use. Cryopreserved hepatocytes were removed from storage, ensuring that vials remained at cryogenic temperatures until thawed. Cells were thawed by placing the vials in a 37° C. water bath and gently shaking the vials for 2 minutes. After thawing was completed, vials were sprayed with 70% ethanol and transferred to a biosafety cabinet. Hepatocytes were transferred into 50 mL conical tube containing thawing medium using wide-bore pipette tips. Tubes were placed into a centrifuge and spun at 100 g for 10 minutes. Then thawing medium was aspirated and hepatocytes were resuspended in enough incubation medium to yield−1.5×10^6 cells/mL. Cells were counted using acridine orange and propidium iodide (AO/PI) staining, and the viable cell density was determined. Cells were diluted with incubation medium to a working cell density of 0.5×10^6 viable cells/mL. • 3. To determine hepatocyte stability, 198 μL of hepatocytes were transferred into each well of a 96-well non-coated plate. Plates were placed in an incubator to allow the hepatocytes to warm for 10 minutes. • 4. The reaction was started by transferring 2 μL of the 100 μM test compound or positive control solution into respective wells of the 96-well non-coated plates. Plates were returned to the incubator until 25 μL aliquots of well contents were sampled at time points of 0, 15, 30, 60, 90 and 120 minutes. The aliquots were then mixed with 6 volumes (150 μL) of acetonitrile containing internal standard, IS (100 nM alprazolam, 200 nM caffeine and 100 nM tolbutamide) to terminate the reaction and vortexed for 5 minutes. After centrifuging the samples for 45 minutes at 3,220 g, aliquots of 100 μL of the supernatant were taken and diluted with 100 μL of ultra-pure water. The mixture was used for LC/MS/MS analysis. All incubations were performed in duplicate.
# All calculations were carried out using Microsoft Excel. Peak area ratios (PAR) were determined from extracted ion chromatograms. The in vitro half-life (t1/2) of parent compound was determined by regression analysis of the percent parent disappearance vs. time curve as follows:
# The in vitro half-life (in vitro t1/2) was determined from the slope value:
# Conversion of the in vitro t1/2 (in minutes) into the in vitro intrinsic clearance (in vitro CLint, in μL/min/1×10^6 cells) was done using the following equation (mean of duplicate determinations): […]
# The scaled-up intrinsic clearance (CLint, mL/min/kg), predicted hepatic clearance (CLH, mL/min/kg) and hepatic extraction ratio (ER) were calculated using the following equations:
# CLint=(0.693/t1/2)*(1/(hepatocyte concentration (0.5*10^6 cells/mL))*scaling factors (Table (A)
# • CLHept-predict=(QH*Scaled-up CLint*fub)/(QH+Scaled-up CLint*fub) • ER=CLH/QH • Where: • V=incubation volume (0.2 mL) • N=number of hepatocytes per well (0.1*10^6 cells) • QH=hepatic blood flow (mL/min/kg) (Table (A)
# • fub=fraction of unbound drug in plasma, assumed to be 1 • Values used for calculation of the predicted hepatic clearance parameters data processing rules are outlined in the following tables (A) (B)
Compound,Caco-2 B2A (10^−6 cm/s) [1],Caco-2 ER [1],IC50 [2],CLhep predicted at 1 µM [4],Caco-2 A2B (10^−6 cm/s) [1],hLM Cl (mL/min/kg) [3]
"Cc1n[nH]c2c1N=C(c1c(F)cccc1F)Nc1c-2cc(N2CC3CC(C2)O3)nc1C [Example 41, 3-(5-(2,6-difluorophenyl)-3,7-dimethyl-1,6-dihydropyrazolo[4,3-d]pyrido[4,3-f][1,3]diazepin-9-yl)-6-oxa-3-azabicyclo[3.1.1]heptane]",H (H (High permeability)”: A2B (B2A)>5),N (N (Non-substrate)”: ER<2.5),< 2 nM,,H (H (High permeability)”: A2B (B2A)>5),I* (I (Intermediate C1)”: 6.3 mL/min/kg≤Hep Cl≤14.7 mL/min/kg)
"Cc1n[nH]c2c1N=C(c1c(F)cccc1F)Nc1c-2cc(N2CCO[C@@H](COC(F)(F)F)C2)nc1C [Example 48, (R)-4-(5-(2,6-difluorophenyl)-3,7-dimethyl-1,6-dihydropyrazolo[4,3-d]pyrido[4,3-f][1,3]diazepin-9-yl)-2-((trifluoromethoxy)methyl)morpholine]",M (M (Moderate permeability)”: 1≤A2B (B2A)≤5),N (N (Non-substrate)”: ER<2.5),< 2 nM,,M (M (Moderate permeability)”: 1≤A2B (B2A)≤5),I* (I (Intermediate C1)”: 6.3 mL/min/kg≤Hep Cl≤14.7 mL/min/kg)
"Cc1n[nH]c2c1N=C(c1c(F)cccc1F)Nc1c-2cc(N2CCOCC2)nc1C(F)(F)F [Example 4, 4-[8-(2,6-difluorophenyl)-5-methyl-11-(trifluoromethyl)-3,4,7,9,12-pentazatricyclo[8.4.0.02,6]tetradeca-1(10),2(6),4,7,11,13-hexaen-13-yl]morpholine]",L (L (Low permeability)”: A2B(B2A)<1),N (N (Non-substrate)”: ER<2.5),2 to 100 nM,,M (M (Moderate permeability)”: 1≤A2B (B2A)≤5),I* (I (Intermediate C1)”: 6.3 mL/min/kg≤Hep Cl≤14.7 mL/min/kg)
"Cc1n[nH]c2c1N=C(c1c(F)cccc1F)Nc1c-2cc(N2CCC[C@@]3(CCOC3)C2)nc1C (single isomer, unassigned) [Example 50]",H (H (High permeability)”: A2B (B2A)>5),N (N (Non-substrate)”: ER<2.5),< 2 nM,,H (H (High permeability)”: A2B (B2A)>5),I* (I (Intermediate C1)”: 6.3 mL/min/kg≤Hep Cl≤14.7 mL/min/kg)
"Cc1n[nH]c2c1N=C(c1c(F)cccc1F)Nc1cnc(-n3ccc(C#N)n3)cc1-2 [Example 57, 1-[8-(2,6-difluorophenyl)-5-methyl-3,4,7,9,12-pentazatricyclo [8.4.0.02,6]tetradeca-1(10),2(6),4,7,11,13-hexaen-13-yl]pyrazole-3-carbonitrile]",H (H (High permeability)”: A2B (B2A)>5),N (N (Non-substrate)”: ER<2.5),2 to 100 nM,6.3 to 14.7 mL/min/kg,H (H (High permeability)”: A2B (B2A)>5),

# Now from value to compound, other results behind:
Caco-2 B2A (10^−6 cm/s) [1],Caco-2 ER [1],IC50 [2],CLhep predicted at 1 µM [4],Compound,Caco-2 A2B (10^−6 cm/s) [1],hLM Cl (mL/min/kg) [3]
H (H (High permeability)”: A2B (B2A)>5),N (N (Non-substrate)”: ER<2.5),< 2 nM,,"Cc1n[nH]c2c1N=C(c1c(F)cccc1F)Nc1c-2cc(C2CCOCC2)nc1C [Example 38, 8-(2,6-difluorophenyl)-5,11-dimethyl-13-tetrahydropyran-4-yl-3,4,7,9,12-pentazatricyclo[8.4.0.02,6]tetradeca-1(10),2(6),4,7,11,13-hexaene]",H (H (High permeability)”: A2B (B2A)>5),I* (I (Intermediate C1)”: 6.3 mL/min/kg≤Hep Cl≤14.7 mL/min/kg)
H (H (High permeability)”: A2B (B2A)>5),N (N (Non-substrate)”: ER<2.5),< 2 nM,,"Cc1n[nH]c2c1N=C(c1c(F)cccc1F)Nc1c-2cc(N2CCN(C)[C@H](C(F)(F)F)C2)nc1C (single isomer, unassigned) [Example 36]",H (H (High permeability)”: A2B (B2A)>5),I* (I (Intermediate C1)”: 6.3 mL/min/kg≤Hep Cl≤14.7 mL/min/kg)
H (H (High permeability)”: A2B (B2A)>5),N (N (Non-substrate)”: ER<2.5),< 2 nM,< 6.3 mL/min/kg,"CCc1n[nH]c2c1N=C(c1c(F)cccc1F)Nc1cnc(N3CCO[C@@H](C)C3)cc1-2 [Example 35, (S)-4-(5-(2,6-difluorophenyl)-3-ethyl-1,6-dihydropyrazolo[4,3-d]pyrido[4,3-f][1,3]diazepin-9-yl)-2-methylmorpholine]",H (H (High permeability)”: A2B (B2A)>5),
